Reference: PubChem BioAssay AID256 (DTP/NCI, 2004)
Several values for one entry are separate records, joined by “and”; a condition that tells them apart may be missing. Equal entries are not always repeated. Inconclusive results and toxic doses are left out. Residues, ends and D or L forms follow the SMILES beside them.

System: CD2F1 mice, L1210 leukemia ip, survival T/C
Experiment: NCI In Vivo Anticancer Drug Screen. Data for tumor model L1210 Leukemia (intraperitoneal) in CD2F1 (CDF1) mice
Conditions: higher = longer survival
Procedure, shortened: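 Vehicle-treated tumor-bearing mice served as controls (C) for compound-treated mice (T). Reported figure is T divided by C.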

[1] = endpoint: mean survival time, dose: 100.0 mg/kg/injection, schedule: Q01DX009 (ip), vehicle: saline with Tween-80
[2] = endpoint: mean survival time, dose: 100.0 mg/kg/injection, schedule: Q04DX003 (ip), vehicle: saline with Tween-80
[3] = endpoint: mean survival time, dose: 200.0 mg/kg/injection, schedule: Q04DX003 (ip), vehicle: saline with Tween-80
[4] = endpoint: mean survival time, dose: 400.0 mg/kg/injection, schedule: Q04DX003 (ip), vehicle: saline with Tween-80
[5] = endpoint: mean survival time, dose: 50.0 mg/kg/injection, schedule: Q01DX009 (ip), vehicle: saline
[6] = endpoint: mean survival time, dose: 100.0 mg/kg/injection, schedule: Q01DX009 (ip), vehicle: saline
[7] = endpoint: mean survival time, dose: 200.0 mg/kg/injection, schedule: Q01DX009 (ip), vehicle: saline
[8] = endpoint: mean survival time, dose: 100.0 mg/kg/injection, schedule: Q01DX009 (ip), vehicle: other
[9] = endpoint: mean survival time, dose: 200.0 mg/kg/injection, schedule: Q01DX001 (ip), vehicle: Klucel (hydroxypropylcellulose) (HPC)

In the case of CC[C@@]1(OC(=O)CN2CCNCC2)C(=O)OCc2c1cc1n(c2=O)Cc2cc3ccccc3nc2-1, the T/C (endpoint: median survival time, dose: 6.25 mg/kg/injection, schedule: Q04DX002 (ip), vehicle: water) is reported as 106 % of control, the T/C (endpoint: median survival time, dose: 12.5 mg/kg/injection, schedule: Q04DX002 (ip), vehicle: water) is reported as 116 % of control and the T/C (endpoint: median survival time, dose: 50.0 mg/kg/injection, schedule: Q04DX002 (ip), vehicle: water) is reported as 153 % of control and 170 % of control. The T/C (endpoint: median survival time, dose: 100.0 mg/kg/injection, schedule: Q04DX002 (ip), vehicle: water) was 268 % of control.

In the case of O=C(NC(=O)c1ccccc1)Nc1ccccc1, the T/C [1] is reported as 96 % of control, the T/C [2] is reported as 92 % of control and the T/C [3] is reported as 90 % of control. For the same molecule, the T/C (endpoint: mean survival time, dose: 400.0 mg/kg/injection, schedule: Q01DX009 (ip), vehicle: saline with Tween-80) was 94 % of control and the T/C [4] was 90 % of control.

With CC(=O)NC(C=O)CC(C=O)CO (configuration not stated) the T/C [5] was 103 % of control, the T/C (endpoint: mean survival time, dose: 50.0 mg/kg/injection, schedule: Q04DX003 (ip), vehicle: saline) was 107 % of control and the T/C [6] was 107 % of control. For the same molecule, the T/C (endpoint: mean survival time, dose: 100.0 mg/kg/injection, schedule: Q04DX003 (ip), vehicle: saline) was 109 % of control, the T/C (endpoint: mean survival time, dose: 150.0 mg/kg/injection, schedule: Q04DX003 (ip), vehicle: saline) was 108 % of control and the T/C [7] was 95 % of control.

With CSc1ncnc2nn(C3OC(COC(=O)c4ccccc4)C(OC(=O)c4ccccc4)C3OC(=O)c3ccccc3)nc12 (configuration not stated) the T/C (endpoint: median survival time, dose: 12.5 mg/kg/injection, schedule: Q01DX005 (ip), vehicle: Klucel (hydroxypropylcellulose) (HPC)) was 94 % of control, the T/C (endpoint: median survival time, dose: 25.0 mg/kg/injection, schedule: Q01DX005 (ip), vehicle: Klucel (hydroxypropylcellulose) (HPC)) was 86 % of control and the T/C (endpoint: median survival time, dose: 50.0 mg/kg/injection, schedule: Q01DX005 (ip), vehicle: Klucel (hydroxypropylcellulose) (HPC)) was 87 % of control. For the same molecule, the T/C (endpoint: median survival time, dose: 100.0 mg/kg/injection, schedule: Q01DX005 (ip), vehicle: Klucel (hydroxypropylcellulose) (HPC)) was 93 % of control and 95 % of control, the T/C (endpoint: median survival time, dose: 200.0 mg/kg/injection, schedule: Q01DX005 (ip), vehicle: Klucel (hydroxypropylcellulose) (HPC)) was 89 % of control and 95 % of control and the T/C (endpoint: median survival time, dose: 400.0 mg/kg/injection, schedule: Q01DX005 (ip), vehicle: Klucel (hydroxypropylcellulose) (HPC)) was 95 % of control.

OC(CCC(O)CSc1ccccc1)CSc1ccccc1 (configuration not stated) was tested, and the T/C [8] was 100 % of control, the T/C (endpoint: mean survival time, dose: 200.0 mg/kg/injection, schedule: Q01DX009 (ip), vehicle: other) was 100 % of control and the T/C (endpoint: mean survival time, dose: 400.0 mg/kg/injection, schedule: Q01DX009 (ip), vehicle: other) was 96 % of control.

In the case of CC(=O)c1ccc(N=NN(C)C)cc1, the T/C (endpoint: mean survival time, dose: 2.37 mg/kg/injection, schedule: Q01DX009 (ip), vehicle: Klucel (hydroxypropylcellulose) (HPC)) is reported as 96 % of control, the T/C (endpoint: mean survival time, dose: 9.5 mg/kg/injection, schedule: Q01DX009 (ip), vehicle: Klucel (hydroxypropylcellulose) (HPC)) is reported as 96 % of control and the T/C (endpoint: mean survival time, dose: 19.0 mg/kg/injection, schedule: Q01DX009 (ip), vehicle: Klucel (hydroxypropylcellulose) (HPC)) is reported as 110 % of control. For the same molecule, the T/C (endpoint: mean survival time, dose: 58.0 mg/kg/injection, schedule: Q01DX009 (ip), vehicle: Klucel (hydroxypropylcellulose) (HPC)) was 101 % of control.

In the case of CC(=O)OC(C)(C)/C=C/C(=O)[C@](C)(O)[C@H]1[C@H](O)C[C@@]2(C)[C@@H]3CC=C4[C@@H](CC[C@H](O)C4(C)C)[C@]3(CO)C(=O)C[C@]12C, the T/C (endpoint: mean survival time, dose: 0.6 mg/kg/injection, schedule: Q01DX009 (ip), vehicle: saline with Tween-80) is reported as 105 % of control, the T/C (endpoint: mean survival time, dose: 0.63 mg/kg/injection, schedule: Q04DX003 (ip), vehicle: saline with Tween-80) is reported as 105 % of control and the T/C (endpoint: mean survival time, dose: 1.2 mg/kg/injection, schedule: Q01DX009 (ip), vehicle: saline with Tween-80) is reported as 105 % of control. The T/C (endpoint: mean survival time, dose: 1.25 mg/kg/injection, schedule: Q04DX003 (ip), vehicle: saline with Tween-80) was 112 % of control, the T/C (endpoint: mean survival time, dose: 2.4 mg/kg/injection, schedule: Q01DX009 (ip), vehicle: saline with Tween-80) was 107 % of control and the T/C (endpoint: mean survival time, dose: 2.5 mg/kg/injection, schedule: Q04DX003 (ip), vehicle: saline with Tween-80) was 114 % of control.

For FC(F)Cc1ccccc1, the T/C (endpoint: mean survival time, dose: 100.0 mg/kg/injection, schedule: Q01DX001 (ip), vehicle: saline with Tween-80) was 100 % of control, the T/C (endpoint: mean survival time, dose: 200.0 mg/kg/injection, schedule: Q01DX001 (ip), vehicle: saline with Tween-80) was 94 % of control and the T/C (endpoint: mean survival time, dose: 400.0 mg/kg/injection, schedule: Q01DX001 (ip), vehicle: saline with Tween-80) was 100 % of control.

In the case of Cc1cc(Cl)ccc1NS(=O)(=O)c1cccc([N+](=O)[O-])c1, the T/C [2] is reported as 97 % of control, the T/C [3] is reported as 93 % of control and the T/C [4] is reported as 90 % of control.

In the case of Cc1ccc(NC(=O)C2CCC(C)(C(=O)O)C2(C)C)cc1 (configuration not stated), the T/C [2] is reported as 96 % of control and the T/C [3] is reported as 91 % of control.

With Cc1cc2nc3c(=O)[nH]c(=O)nc-3n(CC(O)C(O)C(O)C(O)CO)c2cc1C (configuration not stated) the T/C (endpoint: mean survival time, dose: 25.0 mg/kg/injection, schedule: Q01DX009 (ip), vehicle: saline) was 101 % of control, the T/C (endpoint: mean survival time, dose: 25.0 mg/kg/injection, schedule: Q01DX009 (ip), vehicle: suspension in saline) was 96 % of control and the T/C [5] was 93 % of control. The T/C (endpoint: mean survival time, dose: 50.0 mg/kg/injection, schedule: Q01DX009 (ip), vehicle: suspension in saline) was 104 % of control, the T/C [6] was 95 % of control and the T/C (endpoint: mean survival time, dose: 100.0 mg/kg/injection, schedule: Q01DX009 (ip), vehicle: suspension in saline) was 102 % of control. The T/C [7] was 98 % of control, the T/C (endpoint: mean survival time, dose: 200.0 mg/kg/injection, schedule: Q01DX009 (ip), vehicle: suspension in saline) was 98 % of control and the T/C (endpoint: mean survival time, dose: 400.0 mg/kg/injection, schedule: Q01DX009 (ip), vehicle: saline) was 103 % of control. For the same molecule, the T/C (endpoint: mean survival time, dose: 400.0 mg/kg/injection, schedule: Q01DX009 (ip), vehicle: suspension in saline) was 98 % of control and the T/C (endpoint: mean survival time, dose: 800.0 mg/kg/injection, schedule: Q01DX009 (ip), vehicle: saline) was 95 % of control.

CNC(C(=O)O)c1ccccc1 (configuration not stated) was tested, and the T/C (endpoint: mean survival time, dose: 25.0 mg/kg/injection, schedule: Q01DX009 (ip), vehicle: saline with Tween-80) was 101 % of control, the T/C (endpoint: mean survival time, dose: 50.0 mg/kg/injection, schedule: Q01DX009 (ip), vehicle: saline with Tween-80) was 100 % of control and the T/C [1] was 92 % of control and 94 % of control. The T/C [2] was 92 % of control, the T/C [3] was 101 % of control and the T/C [4] was 89 % of control.

C#CC[N+](CC)(CC)CCNC(=O)CCCCCCCCCCCCCCC was tested, and the T/C (endpoint: mean survival time, dose: 75.0 mg/kg/injection, schedule: Q01DX001 (ip), vehicle: saline) was 102 % of control.

CC12OCCCC1C1CCCCC12 (configuration not stated) was tested, and the T/C [2] was 95 % of control, the T/C [3] was 95 % of control and the T/C [4] was 90 % of control.

In the case of O=C1CCCC2c3ccccc3NC12 (configuration not stated), the T/C (endpoint: mean survival time, dose: 100.0 mg/kg/injection, schedule: Q01DX001 (ip), vehicle: saline) is reported as 98 % of control, the T/C (endpoint: mean survival time, dose: 200.0 mg/kg/injection, schedule: Q01DX001 (ip), vehicle: saline) is reported as 102 % of control and the T/C (endpoint: mean survival time, dose: 400.0 mg/kg/injection, schedule: Q01DX001 (ip), vehicle: saline) is reported as 101 % of control.

With COCC(OC)C(OC)C(OC)C(C=O)OC (configuration not stated) the T/C (endpoint: mean survival time, dose: 50.0 mg/kg/injection, schedule: Q01DX001 (ip), vehicle: Klucel (hydroxypropylcellulose) (HPC)) was 99 % of control, the T/C (endpoint: mean survival time, dose: 100.0 mg/kg/injection, schedule: Q01DX001 (ip), vehicle: Klucel (hydroxypropylcellulose) (HPC)) was 99 % of control and the T/C [9] was 105 % of control.

With CCCCCCCCCCCCCC(=O)OC1C(CO)OC2C1Oc1nc(=N)ccn12 (configuration not stated) the T/C (endpoint: mean survival time, dose: 25.0 mg/kg/injection, schedule: Q01DX009 (ip), vehicle: other) was 153 % of control, the T/C (endpoint: mean survival time, dose: 50.0 mg/kg/injection, schedule: Q01DX009 (ip), vehicle: other) was 212 % of control and the T/C [8] was 278 % of control.

With COc1cc(N=Nc2ccc(C(=O)O)cc2)ccc1N(CCCl)CCCl the T/C (endpoint: mean survival time, dose: 25.0 mg/kg/injection, schedule: Q04DX003 (ip), vehicle: Klucel (hydroxypropylcellulose) (HPC)) was 106 % of control and 109 % of control, the T/C (endpoint: mean survival time, dose: 50.0 mg/kg/injection, schedule: Q04DX003 (ip), vehicle: Klucel (hydroxypropylcellulose) (HPC)) was 106 % of control and 112 % of control and the T/C (endpoint: mean survival time, dose: 100.0 mg/kg/injection, schedule: Q04DX003 (ip), vehicle: Klucel (hydroxypropylcellulose) (HPC)) was 113 % of control and 98 % of control.

In the case of CCOC(=O)NC(NC(=O)OCC)C(Br)(Br)Br, the T/C [9] is reported as 103 % of control and the T/C (endpoint: mean survival time, dose: 400.0 mg/kg/injection, schedule: Q01DX001 (ip), vehicle: Klucel (hydroxypropylcellulose) (HPC)) is reported as 95 % of control.

In the case of CC(C)C(NC(=O)C(CCCN=C(N)N)NC(=O)C(N)CCCCN)C(N)=O (stereo not drawn) (H-Lys-Arg-Val-NH2; configuration not given here), the T/C (endpoint: mean survival time, dose: 12.5 mg/kg/injection, schedule: Q01DX009 (ip), vehicle: water) is reported as 101 % of control, the T/C (endpoint: mean survival time, dose: 25.0 mg/kg/injection, schedule: Q01DX009 (ip), vehicle: water) is reported as 101 % of control and the T/C (endpoint: mean survival time, dose: 50.0 mg/kg/injection, schedule: Q01DX009 (ip), vehicle: water) is reported as 94 % of control. The T/C (endpoint: mean survival time, dose: 100.0 mg/kg/injection, schedule: Q01DX009 (ip), vehicle: water) was 97 % of control and the T/C (endpoint: mean survival time, dose: 200.0 mg/kg/injection, schedule: Q01DX009 (ip), vehicle: water) was 95 % of control.
